Data: ChEMBL document CHEMBL3232749, “Exploring the water-binding pocket of the type II dehydroquinase enzyme in the structure-based design of inhibitors” (J Med Chem, 2014)

Key:
[1] = target: T1, 3-dehydroquinate dehydratase (Helicobacter pylori (strain ATCC 700392 / 26695) (Campylobacterpylori), UniProt Q48255); assay: Reversible competitive inhibition of Helicobacter pylori DHQ2 assessed as conversion of 3-dehydroquinic acid to 3-dehydroshikimic acid by Dixon plot analysis
T1 sequence (Q48255 whole entry): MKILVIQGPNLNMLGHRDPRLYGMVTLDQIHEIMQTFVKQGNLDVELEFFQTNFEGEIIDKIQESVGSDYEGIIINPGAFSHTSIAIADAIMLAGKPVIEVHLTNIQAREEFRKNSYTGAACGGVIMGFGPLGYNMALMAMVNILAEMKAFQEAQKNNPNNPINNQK

[2] = Reversible competitive inhibition of Mycobacterium tuberculosis DHQ2 assessed as conversion of 3-dehydroquinic acid to 3-dehydroshikimic acid by Dixon plot analysis

Structure (SMILES)	Ki [1] [µM]	Ki [2] [µM]
O=C(O)[C@]1(O)C=C(CO)[C@@H](O)[C@H](O)C1	282	11.2
O=C(O)[C@]1(O)C=C([C@H](Cl)Cc2ccccc2)[C@@H](O)[C@H](O)C1	10.5	0.48
O=C(O)[C@]1(O)C=C([C@@H](O)Cc2ccccc2)[C@@H](O)[C@H](O)C1	37	34
O=C(O)[C@]1(O)C=C([C@H](O)Cc2ccccc2)[C@@H](O)[C@H](O)C1	33	27
O=C(O)[C@]1(O)C=C(CCO)[C@@H](O)[C@H](O)C1	188	15
O=C(O)[C@]1(O)C=C([C@@H](Cl)Cc2ccccc2)[C@@H](O)[C@H](O)C1	40.5	14.5
